Test results as given in patent US7579006B2, “Method of treating immune pathologies with low dose estrogen” (Oregon Health and Science University, priority 2000, dated 2009).
Read-outs that look alike come from different tables or passages of the source.

Tests used:
[1] = cited from earlier work
Lymph node CD3+ T cells = assay: FACS of chemokine receptors on lymph node CD3+ T cells; format: in vivo, mice; settings: 0.36 mg pellet
Procedure: Flow cytometry. Lymph node cells from sham and 17β-estradiol treated animals with EAE were washed with PBS/2% FCS/0.2% NaN3 and first incubated on ice for 30 min with Fcγ III/II receptor blocking monoclonal antibody (PharMingen), then stained with PE-conjugated anti-CD3 (PharMingen). After 20 min of incubation with anti-CD3, the cells were fixed and permablized using Cytofix/Cytoperm (PharMingen). Subsequently, cells were incubated with anti-CCR1, anti-CCR2, anti-CCR3, anti-CCR4 and anti-CCR5 goat anti-mouse polyclonal antibodies (Santa Cruz Biotechnology Inc.; USA) for 30 min on ice. After washing, cells were stained with FITC-conjugated anti-goat monoclonal antibodies (Sigma) for an additional 30 min on ice. Cells were analyzed using a FACS-Scan (Becton Dickinson). Propidium iodide and forward/side scatter gating were used to exclude dead cells.

CNS mononuclear cells = assay: Intracellular cytokine staining of CNS mononuclear cells; format: in vivo, mice; settings: 2.5 mg pellet
Text: CNS mononuclear cells were isolated from perfused brain and spinal cord by percol gradient centrifugation as described in Bebo et al., J. Neurosci. Res. 52:420-429 (1998). The cells were stimulated with MOG-35-55 peptide for 24 hrs, the last 5 hrs in the presence of Brefeldin A. The cells were then stained with anti-CD4 cychrome labeled antibodies prior to fixation and permeabilization. The cells were subsequently stained with Vβ8.1/8.2 TCR-FITC and the indicated cytokine specific antibody coupled to PE and analyzed by three-color flow cytometry. For each experiment the cells were stained with isotype control antibodies to establish background staining and to set the quadrants prior to calculating the percent positive cells.
Intracellular staining of CNS mononuclear cells with anti-cytokine antibodies was also performed. Mononuclear cells were recovered from the brain and spinal cords of perfused mice at the peak of clinical disease. […] These cells were stained with anti-CD4 cychrome labeled antibodies and the frequency of cytokine producing Vβ8.2+ helper T cells was measured by staining with anti-Vβ8.2-FITC and PE-labeled cytokine specific antibodies.

[2] = test system: T cells from naïve BV8S2 transgenic female mice; assay: In vitro effect of 17β-estradiol on T cells from naïve BV8S2 transgenic female mice; format: cell-based
Procedure: Proliferation assay. Proliferation responses of splenic T cells were determined essentially as described in Example II, except that antigen was used at an optimal concentration of 50 μg/ml.
Measurement of cytokine secretion. Lymph nodes of naïve BV8S2 TCR transgenic females were suspended at 4×10^6 cells/ml in stimulation medium with antigen and with or without 2000 pg/ml of 17β-estradiol. Cell culture supernatants were recovered at 72 hours and frozen at −70 C until used. Measurement of cytokines was performed by ELISA essentially as described in Example II.
To evaluate 17β-estradiol effects on antigen specific T cells, splenocytes from naïve BV8S2 single transgenic female mice were stimulated with MBP-Ac1-11 peptide or BV8S2 protein in the presence or absence of a range of 17β-estradiol concentrations.

IL-4 KO mice = assay: EAE induced with MOG 35-55 in IL-4 KO mice (clinical, histopathology); format: in vivo; settings: 2.5 mg pellet
Procedure: Estrogen treatment. Sixty-day release pellets containing 2.5 mg of 17β-estradiol (E2) or vehicle were implanted subcutaneously (s.c) in the scapular region behind the neck using a 12-gauge trochar as described by the manufacturer (Innovative Research of America, Sarasota, Fla.). The mice were implanted one week prior to immunization with MOG 35-55. The concentration of E2 expected in the serum is between 1,500-2,000 pg/ml, which is approximately 5 times less than the levels found during pregnancy.
Induction of EAE. C57BL/6 and cytokine deficient mice were inoculated s.c in the flanks with 0.2 ml of an emulsion containing 200 μg of MOG 35-55 in saline and an equal volume of complete Freund's Adjuvant (CFA) containing 400 μg of Mycobacterium tuberculosis H37RA (Difco Laboratories, Detroit, Mich.). Disease induction required i.v. administration of pertussis toxin on the day of immunization (25 ng/mouse) and 2 days later (67 ng/mouse). The mice were assessed daily for clinical signs of EAE according to the 7 point scale described in Example I.
Histopathology. Histopathologic assessment of spinal column section was performed essentially as described in Example I, except that sections were stained with either luxol fast blue-periodic acid schiff-hematoxylin or silver nitrate prior to analysis.
Statistical analysis. Significant differences in incidence and mortality between untreated and E2 treated mice were assessed by Chi-square analysis. Difference in onset was determined using the two-tailed Student t test. Differences in peak score and cumulative disease index (CDI) were assessed by the Mann-Whitney test. Statistical significance of the frequency of cytokine secreting cells was analyzed using Student's t test for comparisons of two means. Differences in the expression of chemokine and cytokine mRNA were also determined using the Student t test. Values of p<0.05 were considered significant.

SMILES: C[C@]12CC[C@@H]3c4ccc(O)cc4CC[C@H]3[C@@H]1CC[C@@H]2O [17β-estradiol]
- serum concentration from 60-day release pellet ([1]; 0.025 mg pellet): 5 to 10 pg/mL
- serum concentration from 60-day release pellet ([1]; 0.1 mg pellet): 25 to 50 pg/mL
- serum concentration from 60-day release pellet ([1]; 0.36 mg pellet): 150 to 200 pg/mL
- serum concentration from 60-day release pellet ([1]; 1.5 mg pellet): 800-1,000 pg/ml
- serum concentration from 60-day release pellet ([1]; 2.5 mg pellet): 1,500-2,000 pg/ml
- serum concentration from 60-day release pellet ([1]; 5 mg pellet): 3,000-4,000 pg/ml
- serum concentration from 60-day release pellet ([1]; 15 mg pellet): 9,000-10,000 pg/ml
- CCR2 staining of lymph node CD3+ T cells (Lymph node CD3+ T cells): No difference
- percentage of CCR5 positive lymph node CD3+ T cells (Lymph node CD3+ T cells; sham 35+4, p=0.03, in %): 27+2
- percentage of CCR1 positive lymph node CD3+ T cells (Lymph node CD3+ T cells; sham 91+6%, p=0.02): 77+2%
- frequency and staining intensity of TNF-α and IFN-γ producing CD4+ T cells in the CNS (CNS mononuclear cells; p<0.0001): dramatic reduction
- total number of mononuclear cells recovered from perfused CNS, untreated relative to E2 treated mice (CNS mononuclear cells; peak of clinical disease): 4-5 times higher
- pro-inflammatory cytokine producing CD4+ Vβ8.2+ T cells in CNS (CNS mononuclear cells; untreated 29,000 cells/mouse): 390 cells/mouse
- IL-12 or IL-10 secretion ([2]; in vitro, 2,000 pg/ml, MBP-Ac1-11 stimulated LN cells): no effects
- reduction of secreted IFN-γ protein ([2]; in vitro, 2,000 pg/ml, MBP-Ac1-11 stimulated LN cells, p<0.005): 50%
- native T cell proliferation response to MBP-Ac1-11 peptide ([2]; in vitro, 15-2,000 pg/ml): no significant effect
- native proliferation response to BV8S2 protein ([2]; in vitro, 15-2,000 pg/ml): modest enhancing effect
- IFN-γ or other cytokine secretion ([2]; in vitro, lower doses (150-400 pg/ml)): no inhibitory effects
- CDI (IL-4 KO mice; IL-4 KO): 18.4 ± 22.2
- Incidence (IL-4 KO mice; IL-4 KO): 8/11
- Mortality (IL-4 KO mice; IL-4 KO): 0/11
- Onset (IL-4 KO mice; IL-4 KO): 20.6 ± 4.9
- Peak Score (IL-4 KO mice; IL-4 KO): 4.4 ± 1.0
- Inflammatory foci/section (IL-4 KO mice; IL-4KO, spinal cord): 0.0 ± 0.0 Foci/Section
